Reference: patent publication US20220033397A1, “PHARMACEUTICAL COMPOUNDS AND THEIR USE AS INHIBITORS OF UBIQUITIN SPECIFIC PROTEASE 19 (USP19)” (ALMAC DISCOVERY LIMITED, priority 2018, published 2022)

The compounds below were run against T1, Full-length USP19 (Homo sapiens, UniProt O94966) (assay: USP19 fluorescence polarisation (FP) homogeneous assay with Ubiquitin-Lys-TAMRA substrate). Conditions: 2.5 nM USP19, 30 min pre-incubation, average of at least two duplicate experiments.
T1 construct: Full-length USP19 was purchased from Boston Biochem (E-576); purchased Boston Biochem E-576
T1 sequence (O94966 1-1318): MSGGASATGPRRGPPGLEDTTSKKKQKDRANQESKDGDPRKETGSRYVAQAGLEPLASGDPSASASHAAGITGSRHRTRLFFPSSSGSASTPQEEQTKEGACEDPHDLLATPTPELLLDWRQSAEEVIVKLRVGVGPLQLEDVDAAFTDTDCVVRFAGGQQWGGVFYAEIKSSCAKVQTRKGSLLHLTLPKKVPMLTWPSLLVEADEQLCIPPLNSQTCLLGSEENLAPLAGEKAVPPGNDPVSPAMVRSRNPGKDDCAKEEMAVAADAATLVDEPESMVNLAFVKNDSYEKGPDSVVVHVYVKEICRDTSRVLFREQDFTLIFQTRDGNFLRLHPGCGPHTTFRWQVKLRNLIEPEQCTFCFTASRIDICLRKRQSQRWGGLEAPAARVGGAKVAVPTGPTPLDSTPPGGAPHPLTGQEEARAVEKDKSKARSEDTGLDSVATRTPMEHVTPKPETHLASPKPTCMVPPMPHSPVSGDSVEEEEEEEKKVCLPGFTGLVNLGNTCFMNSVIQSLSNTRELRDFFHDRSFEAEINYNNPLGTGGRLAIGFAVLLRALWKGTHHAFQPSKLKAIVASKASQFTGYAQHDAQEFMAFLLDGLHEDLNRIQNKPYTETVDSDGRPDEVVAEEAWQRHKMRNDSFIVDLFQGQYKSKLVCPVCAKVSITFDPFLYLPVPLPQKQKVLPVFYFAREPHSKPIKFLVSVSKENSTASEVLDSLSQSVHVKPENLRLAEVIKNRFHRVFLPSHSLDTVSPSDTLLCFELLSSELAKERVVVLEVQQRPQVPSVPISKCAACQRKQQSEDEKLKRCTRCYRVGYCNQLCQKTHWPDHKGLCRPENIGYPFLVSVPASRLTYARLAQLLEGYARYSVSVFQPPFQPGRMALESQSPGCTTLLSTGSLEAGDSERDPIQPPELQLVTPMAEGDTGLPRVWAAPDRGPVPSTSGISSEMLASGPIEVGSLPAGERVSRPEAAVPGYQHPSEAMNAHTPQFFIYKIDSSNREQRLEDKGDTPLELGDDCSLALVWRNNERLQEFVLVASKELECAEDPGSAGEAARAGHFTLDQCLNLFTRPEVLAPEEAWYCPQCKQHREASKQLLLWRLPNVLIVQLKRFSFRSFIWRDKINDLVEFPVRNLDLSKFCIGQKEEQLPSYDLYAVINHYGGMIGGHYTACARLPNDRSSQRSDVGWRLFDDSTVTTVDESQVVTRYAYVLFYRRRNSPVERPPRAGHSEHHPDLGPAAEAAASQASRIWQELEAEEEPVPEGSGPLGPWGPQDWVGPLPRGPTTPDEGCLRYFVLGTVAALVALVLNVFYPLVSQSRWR
Format: biochemical
Procedure, shortened: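 Full-length USP19 preincubated 30 min at RT with inhibitor (200 μM to 2 μM series, 8–18 points) before adding 500 nM Ubiquitin-Lys-TAMRA substrate.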
Work on `CS(=N)(=O)c1cn(CC2(O)CCN(C(=O)N3CCNC[C@H]3c3ccccc3)CC23CCCC3)c(=O)cc1-c1ccccc1` (stereo partly drawn) [Example 189, 1-((10-Hydroxy-7-((R)-2-phenylpiperazine-1-carbonyl)-7-azaspiro[4.5]decan-10-yl)methyl)-5-(S-methylsulfonimidoyl)-4-phenylpyridin-2(1H)-one] yielded an IC50 of less than 0.5 µM.
`CS(=N)(=O)c1cn(CC2(O)CCN(C(=O)N3CCOC[C@H]3c3ccccc3)CC23CCCC3)c(=O)cc1-c1ccccc1` (stereo partly drawn) [Example 190, 1-((10-Hydroxy-7-((R)-3-phenylmorpholine-4-carbonyl)-7-azaspiro[4.5]decan-10-yl)methyl)-5-(S-methylsulfonimidoyl)-4-phenylpyridin-2(1H)-one] showed an IC50 of less than 0.5 µM.
`CS(C)(=O)=Nc1cn(CC2(O)CCN(C(=O)N3CCNC[C@H]3c3ccccc3)CC23CCCC3)c(=O)cc1-c1ccccc1` (stereo partly drawn) [Example 191, 5-((Dimethyl(oxo)-λ^6-sulfaneylidene)amino)-1-((10-hydroxy-7-((R)-2-phenylpiperazine-1-carbonyl)-7-azaspiro[4.5]decan-10-yl)methyl)-4-phenylpyridin-2(1H)-one] showed an IC50 of less than 0.5 µM.
For `O=C(NCc1ccccc1)N1CCC(O)(Cn2ccc(-c3ccccc3)cc2=O)C2(CCCC2)C1` (centres unmarked) [Example 192, N-Benzyl-10-hydroxy-10-((2-oxo-4-phenylpyridin-1(2H)-yl)methyl)-7-azaspiro[4.5]decane-7-carboxamide], the IC50 was less than 0.5 µM.
`O=C(NCc1ccccc1)N1CCC(O)(Cn2cnc(-c3ccccc3)cc2=O)C2(CCCC2)C1` (centres unmarked) [Example 193, N-Benzyl-10-hydroxy-10-((6-oxo-4-phenylpyrimidin-1(6H)-yl)methyl)-7-azaspiro[4.5]decane-7-carboxamide] was tested, and the IC50 was less than 0.5 µM.
Work on `O=C(NCc1ccccc1)N1CCC(O)(Cn2cnc(-c3ccccc3F)cc2=O)C2(CC2)C1` (centres unmarked) [Example 194, N-Benzyl-8-((4-(2-fluorophenyl)-6-oxopyrimidin-1(6H)-yl)methyl)-8-hydroxy-5-azaspiro[2.5]octane-5-carboxamide] yielded an IC50 of 50 to 250 µM.
With `CC1(C)CN(C(=O)NCc2ccccc2)CCC1(O)Cn1cnc(-c2ccccc2F)cc1=O` (centres unmarked) [Example 195, N-Benzyl-4-((4-(2-fluorophenyl)-6-oxopyrimidin-1(6H)-yl)methyl)-4-hydroxy-3,3-dimethylpiperidine-1-carboxamide] the IC50 was 5 to 50 µM.
`O=C(NCC(F)(F)F)N1CCC(O)(Cn2cnc(-c3ccccc3)cc2=O)C2(CCCC2)C1` (centres unmarked) [Example 196, 10-Hydroxy-10-((6-oxo-4-phenylpyrimidin-1(6H)-yl)methyl)-N-(2,2,2-trifluoroethyl)-7-azaspiro[4.5]decane-7-carboxamide] showed an IC50 of 5 to 50 µM.
`O=C(NCc1ccccn1)N1CCC(O)(Cn2cnc(-c3ccccc3)cc2=O)C2(CCCC2)C1` (centres unmarked) [Example 197, 10-Hydroxy-10-((6-oxo-4-phenylpyrimidin-1(6H)-yl)methyl)-N-(pyridin-2-ylmethyl)-7-azaspiro[4.5]decane-7-carboxamide] gave an IC50 of 50 to 250 µM.
`O=C(NCc1ccccc1)N1CCC(O)(Cn2cnc(Cl)cc2=O)C2(CCCC2)C1` (centres unmarked) [Example 198, N-Benzyl-10-((4-chloro-6-oxopyrimidin-1(6H)-yl)methyl)-10-hydroxy-7-azaspiro[4.5]decane-7-carboxamide] was tested, and the IC50 was 50 to 250 µM.
Compound `O=C(NCc1cccnc1)N1CCC(O)(Cn2cnc(-c3ccccc3)cc2=O)C2(CCCC2)C1` (centres unmarked) [Example 199, 10-Hydroxy-10-((6-oxo-4-phenylpyrimidin-1(6H)-yl)methyl)-N-(pyridin-3-ylmethyl)-7-azaspiro[4.5]decane-7-carboxamide] has an IC50 of 50 to 250 µM.
`O=C(NCc1ccccc1)N1CCC(O)(Cn2cnc(-c3cccnc3)cc2=O)C2(CCCC2)C1` (centres unmarked) [Example 200, N-Benzyl-10-hydroxy-10-((6-oxo-4-(pyridin-3-yl)pyrimidin-1(6H)-yl)methyl)-7-azaspiro[4.5]decane-7-carboxamide] was tested, and the IC50 was 5 to 50 µM.
`O=C(NCc1ccccc1)N1CCC(O)(Cn2cnc(-c3ccncc3)cc2=O)C2(CCCC2)C1` (centres unmarked) [Example 201, N-Benzyl-10-hydroxy-10-((6-oxo-4-(pyridin-4-yl)pyrimidin-1(6H)-yl)methyl)-7-azaspiro[4.5]decane-7-carboxamide] gave an IC50 of 0.5 to 5 µM.
Work on `O=C(NCc1ccccc1)N1CCC(O)(Cn2cnc(N3CCCC3)cc2=O)C2(CCCC2)C1` (centres unmarked) [Example 202, N-Benzyl-10-hydroxy-10-((6-oxo-4-(pyrrolidin-1-yl)pyrimidin-1(6H)-yl)methyl)-7-azaspiro[4.5]decane-7-carboxamide] yielded an IC50 of 5 to 50 µM.
`O=C(NCc1ccccc1)N1CCC(O)(Cn2cnc(N3CCOCC3)cc2=O)C2(CCCC2)C1` (centres unmarked) [Example 203, N-Benzyl-10-hydroxy-10-((4-morpholino-6-oxopyrimidin-1(6H)-yl)methyl)-7-azaspiro[4.5]decane-7-carboxamide] was tested, and the IC50 was 50 to 250 µM.
For `Cn1cc(-c2cc(=O)n(CC3(O)CCN(C(=O)NCc4ccccc4)CC34CCCC4)cn2)cn1` (centres unmarked) [Example 204, N-Benzyl-10-hydroxy-10-((4-(1-methyl-1H-pyrazol-4-yl)-6-oxopyrimidin-1(6H)-yl)methyl)-7-azaspiro[4.5]decane-7-carboxamide], the IC50 was 5 to 50 µM.
In the case of `Cn1nccc1-c1cc(=O)n(CC2(O)CCN(C(=O)NCc3ccccc3)CC23CCCC3)cn1` (centres unmarked) [Example 205, N-Benzyl-10-hydroxy-10-((4-(1-methyl-1H-pyrazol-5-yl)-6-oxopyrimidin-1(6H)-yl)methyl)-7-azaspiro[4.5]decane-7-carboxamide], the IC50 is reported as 0.5 to 5 µM.
For `O=C(N1CCC(O)(Cn2cnc(-c3ccccc3)cc2=O)C2(CCCC2)C1)N1CCCC1C(F)(F)F` (centres unmarked) [Example 206, 3-((10-Hydroxy-7-(2-(trifluoromethyl)pyrrolidine-1-carbonyl)-7-azaspiro[4.5]decan-10-yl)methyl)-6-phenylpyrimidin-4(3H)-one], the IC50 was 0.5 to 5 µM.
Compound `C[C@@H]1CNCCN1C(=O)N1CCC(O)(Cn2cnc(-c3ccccc3)cc2=O)C2(CCCC2)C1` (stereo partly drawn) [Example 207, 3-((10-Hydroxy-7-((R)-2-methylpiperazine-1-carbonyl)-7-azaspiro[4.5]decan-10-yl)methyl)-6-phenylpyrimidin-4(3H)-one] has an IC50 of 50 to 250 µM.
In the case of `CC(C)C1CNCCN1C(=O)N1CCC(O)(Cn2cnc(-c3ccccc3)cc2=O)C2(CCCC2)C1` (centres unmarked) [Example 208, 3-((10-Hydroxy-7-(2-isopropylpiperazine-1-carbonyl)-7-azaspiro[4.5]decan-10-yl)methyl)-6-phenylpyrimidin-4(3H)-one], the IC50 is reported as 50 to 250 µM.
`O=C(N1CC2CC2C1)N1CCC(O)(Cn2cnc(-c3ccccc3)cc2=O)C2(CCCC2)C1` (centres unmarked) [Example 209, 3-((7-(3-Azabicyclo[3.1.0]hexane-3-carbonyl)-10-hydroxy-7-azaspiro[4.5]decan-10-yl)methyl)-6-phenylpyrimidin-4(3H)-one] was tested, and the IC50 was 50 to 250 µM.
Compound `O=C(N1CC[C@@](O)(Cn2cnc(-c3ccccc3)cc2=O)C2(CCCC2)C1)N1CCNC[C@@H]1c1ccccc1` [Example 210, 3-(((S)-10-Hydroxy-7-((S)-2-phenylpiperazine-1-carbonyl)-7-azaspiro[4.5]decan-10-yl)methyl)-6-phenylpyrimidin-4(3H)-one] has an IC50 of less than 0.5 µM.
For `O=C(N1CC[C@@](O)(Cn2cnc(-c3ccccc3)cc2=O)C2(CCCC2)C1)N1CCOC[C@H]1c1ccccc1` [Example 211, 3-(((S)-10-Hydroxy-7-((R)-3-phenylmorpholine-4-carbonyl)-7-azaspiro[4.5]decan-10-yl)methyl)-6-phenylpyrimidin-4(3H)-one], the IC50 was less than 0.5 µM.
